# Values quoted from earlier work in patent publication US20220228277A1, “COMPACT GENERATOR FOR GENERATING STERILIZING MATERIALS” (priority 2021, published 2022).
# Legend:
# [1] = in a year
# [2] = environment dependent
# [3] = 20° C. water; also printed as 29.9 ppm
decay of sealed H2O2-H2O solution [1] [%],SMILES,natural life of O3 (turns into O2) [2] [min],solubility of O3 in water [3] [µg/mL]
10,"OO [H2O2, hydrogen peroxide]",,
,"O=[O+][O-] [O3, ozone]",20 to 30,29.9
